# Read-outs that look alike come from different tables or passages of the source.
# Tests used:
# [1] = target: full-length NS3 (helicase) (Hepatitis C virus genotype 1a, UniProt P26664); format: biochemical
# [2] = system: HCVsg 1b(con1)-Rluc replicon; assay: microbe, parasite or virus in culture; format: cell-based, hepatitis C virus genotype 1b (con1); conditions: read-out: EC50 (concentration needed to reduce cellular HCVsg 1b(con1)-Rluc replicon content by 50%)
# Cell viability assay = format: cell-based; conditions: human
# [3] = system: HCVsg 1b(con1)-Rluc replicon; format: cell-based, hepatitis C virus genotype 1b; conditions: combined with HPI; for Volume under the synergy plot (difference from Bliss additivity): MacSynergy II, 95% confidence; for Interaction with HPI (deviation from additive effects): Prichard & Shipman definitions
# Huh7.5 cell viability = assay: Cell viability assay; format: cell-based
# HCVsg 2a(JFH1) replicon [4] = assay: HCVsg 2a; format: cell-based, hepatitis C virus genotype 2a (JFH1); conditions: Renilla luciferase reporter
# [5] = system: subgenomic dengue virus replicon (DENVsg 2); assay: Dengue virus subgenomic replicon assay in BHK-21 cells; format: cell-based, dengue virus strain 2; conditions: Renilla luciferase-tagged replicon
# HCVsg 2a(JFH1) replicon [6] = assay: Colony formation assay, Huh7.5 cells with HCVsg 2a; format: cell-based, hepatitis C virus genotype 2a; conditions: genotype 2a replicon, G418 selection
# [7] = system: HCVsg 1b(con1)-Rluc replicon; format: cell-based, hepatitis C virus genotype 1b
# scNS4A-NS3 Q526A = assay: NS3 depsipeptide cleavage; format: biochemical, hepatitis C virus genotype 1a
# scNS4A-NS3 H528A = assay: NS3 depsipeptide cleavage; format: biochemical, hepatitis C virus genotype 1a
# scNS4A-NS3 V524A = assay: NS3 depsipeptide cleavage; format: biochemical, hepatitis C virus genotype 1a; conditions: Val524 mutation
# [8] = target: recombinant full-length NS3 not fused to NS4A (Hepatitis C virus genotype 1a, UniProt P26664); assay: NS3 depsipeptide cleavage; format: biochemical; conditions: in the presence and absence of NS4A
# [9] = system: BHK DENV-Rluc cell viability
# [10] = system: HCVsg 1b(con1) replicon harboring R155K; conditions: 3 days
# [11] = system: HCVsg 1b(con1) replicon harboring the R155K and V36A mutations; conditions: 3 days
# [12] = Hepatitis C virus, Huh7.5, 72 h
structure (smiles),measurement,setting,value
CC(C)(C)OC(=O)N[C@H]1CCCCC/C=C\[C@@H]2C[C@@]2(C(=O)NS(=O)(=O)C2CC2)NC(=O)[C@@H]2C[C@@H](OC(=O)N3Cc4cccc(F)c4C3)CN2C1=O [Danoprevir],Inhibition of NS3 in an MBHA,[1]; full-length NS3,do not inhibit
same,EC50,[2]; [12],2 ± 0.5 nM
same,CC50,Cell viability assay,100 µM
same,Volume under the synergy plot (difference from Bliss additivity),[3],17 μM^2%
same,Interaction with HPI (deviation from additive effects),[3],"Minor, insignificant synergy"
Cc1ccc2nc(-c3ccc4nc(-c5ccc(NC(=O)c6cc(C(F)(F)F)cc(C(F)(F)F)c6)cc5)sc4c3)sc2c1S(=O)(=O)O.N [HPI],Inhibition of NS3 in an MBHA,[1]; full-length NS3,inhibits full-length NS3 in an MBHA
same,IC50,"[1]; read-out: IC50, molecular beacon-based helicase assay, NS3-catalyzed DNA unwinding, normalized initial velocities",6 ± 2 µM
same,EC50,"[2]; Huh7.5 cells, 72 hours, relative to DMSO",15000 ± 4000 nM
same,Effect on viability of cells containing HCVsg 1b(con1) or HCVsg 2a(JFH1),Huh7.5 cell viability; concentrations up to 100 μM,did not affect the viability
same,CC50,"Huh7.5 cell viability; read-out: CC50 (concentration needed to reduce cell viability by 50%), Huh7.5 cells",> 100 µM
same,Activity against the HCVsg 2a(JFH1) replicon,HCVsg 2a(JFH1) replicon [4],little activity
same,Antiviral activity on subgenomic dengue virus replicon,[5],no antiviral activity
same,Antiviral activity in colony-formation assay,HCVsg 2a(JFH1) replicon [6],some antiviral activity
same,Change in sensitivity of the cell line to the compound after selection,[7]; incubated with HPI twice as long as 3 weeks (6 weeks),≤ 2 fold
same,Sensitivity of cells that became resistant to telaprevir,"[7]; telaprevir-selected cells, data not shown",retained sensitivity
same,Effect of substitution on ability to inhibit the NS3 protease,scNS4A-NS3 Q526A,neither the Q526A nor H528A substitutions influenced
same,Effect of substitution on ability to inhibit the NS3 protease,scNS4A-NS3 H528A,neither the Q526A nor H528A substitutions influenced
same,Effect of mutation on ability to inhibit NS3-catalyzed peptide cleavage,scNS4A-NS3 V524A,do not affect
same,Amount needed to inhibit NS3-catalyzed peptide cleavage versus scNS4A-NS3,[8],considerably more HPI was needed
same,"Effect on cell viability, dengue replicon cells",[9],no effect on cell viability
same,Activity on telaprevir-resistant replicon versus HCVsg 1b(con1) replicon,[10],equally active
same,Activity on telaprevir-resistant replicon versus HCVsg 1b(con1) replicon,[11],equally active
C=C[C@@H]1C[C@]1(NC(=O)[C@@H]1C[C@@H]2CN1C(=O)[C@H](C(C)(C)C)NC(=O)O[C@@H]1C[C@H]1CCCCCc1nc3ccc(OC)cc3nc1O2)C(=O)NS(=O)(=O)C1CC1 [Grazoprevir],EC50,[2]; [12],0.76 ± 0.13 nM
same,CC50,Cell viability assay; replicon-bearing Huh7.5 cells,54 ± 5 µM
same,Volume under the synergy plot (difference from Bliss additivity),[3],101 μM^2%
CCC[C@H](NC(=O)[C@@H]1[C@H]2CCC[C@H]2CN1C(=O)[C@@H](NC(=O)[C@@H](NC(=O)c1cnccn1)C1CCCCC1)C(C)(C)C)C(=O)C(=O)NC1CC1 [Telaprevir],Inhibition of NS3 in an MBHA,[1],do not inhibit
same,EC50,[2]; [12],810 ± 400 nM
same,CC50,Cell viability assay; replicon-bearing Huh7.5 cells,45 ± 4 µM
same,Sensitivity of cells that were incubated with HPI,"[7]; HPI-selected cells, data not shown",retained sensitivity
same,Resistance after incubation with the compound,[7]; incubated with telaprevir for 3 weeks,became resistant
same,Interaction with HPI (deviation from additive effects),[3],no significant deviations from additive effects
CC(C)(C)NC(=O)N[C@H](C(=O)N1C[C@H]2[C@@H]([C@H]1C(=O)NC(CC1CCC1)C(=O)C(N)=O)C2(C)C)C(C)(C)C (some centres unmarked) [Boceprevir],Inhibition of NS3 in an MBHA,[1],do not inhibit
same,EC50,[2]; [12],640 ± 100 nM
same,CC50,Cell viability assay; replicon-bearing Huh7.5 cells,> 100 µM
same,Interaction with HPI (deviation from additive effects),[3],no significant deviations from additive effects
